≈ marks a conversion by molar mass, not a printed value.

Common to all, as to format: functional, cell-based
One assay concerns MCF7. Put plainly: Cytotoxicity against human MCF7 cells.
For a further assay, the system named is CCRF-CEM. Kind of assay: Cytotoxicity against human CCRF-CEM cells.
The next assay concerns HCT-116. Put plainly: Cytotoxicity against human HCT116 cells.
Another assay relates to SK-MEL-5. Put plainly: Cytotoxicity against human SK-MEL-5 cells.

As to `C=C1C(=O)O[C@H]2[C@H](OC(C)=O)[C@H](C)CCC/C(C)=C/CC[C@@]3(C)O[C@@H]3C[C@@H]12`, the IC50 is 8 µg/mL (≈ 21.2 µM) with MCF7, at least 50 µg/mL with CCRF-CEM and 8 µg/mL (≈ 21.2 µM) with HCT-116.

For `C=C1C(=O)O[C@H]2[C@@H](OC(C)=O)[C@H](C)CCC/C(C)=C/CC[C@@]3(C)O[C@@H]3C[C@@H]12`, the IC50 was determined as 6 µg/mL (≈ 15.9 µM) with MCF7, 5 µg/mL (≈ 13.3 µM) in the assay with SK-MEL-5 and 0.4 µg/mL (≈ 1.06 µM) in the assay with HCT-116.

Regarding `C=C1C(=O)OC2C(=O)[C@H](C)CCC/C(C)=C/CC[C@@]3(C)O[C@@H]3C[C@@H]12` (some centres undefined) [SUCCINOLIDE], the IC50 in the assay on MCF7 was 3 µg/mL (≈ 9.02 µM); with CCRF-CEM it was at least 50 µg/mL; in the assay with HCT-116 it was 2 µg/mL (≈ 6.02 µM).

The term IC50 denotes the point on the concentration scale where inhibition reaches its midpoint.

The values above are taken from ChEMBL document CHEMBL1147354, “Further bioactive cembranolide diterpenes from the gorgonian Eunicea succinea” (J Nat Prod, 1993).
